Experimental data taken from a melting point compilation (Tetko et al.; mined from patent text by program, amines drawn as free bases though some values may be those of a salt).

melting point	Structure (SMILES)
75 to 93 °C	COc1cc2c(cc1Nc1ncc(Cl)c(Nc3ccccc3S(=O)(=O)N(C)C)n1)CCN(CC(=O)N1CCCC1)CC2
210 to 213 °C	N#Cc1cnc2c(sc3ccc([N+](=O)[O-])cc32)c1Nc1ccc(Cl)cc1Cl
280 °C	COc1ccc(CC(=O)Nc2cccc3c2C(=O)c2c-3n[nH]c2-c2ccc(OC)cc2)cc1
108 to 109 °C	CC(C)c1cccc(NC(=O)[C@H](Br)C(C)C)c1O
156 °C	CC1(OCC(F)(F)F)C=NC(c2cc(-c3ccc(S(C)(=O)=O)cc3)c(N3CCOCC3)s2)=CC1 (configuration not stated)
151 to 152 °C	COc1cc(C=O)cc(C(F)(F)F)c1O
196 to 197 °C	NC(=S)Nc1cc(C(F)(F)F)ccc1N1CCOCC1
120 to 122 °C	COc1ccc(OC)c2c1CCC(OC(C)=O)(C(C)=O)C2 (configuration not stated)
225 to 228 °C	CCN(CC)C(=O)N[C@H]1CC[C@H](NC(=O)N(CC)CC)CC1
246 to 249 °C	Cc1cc(=O)n(Cc2ccccc2)c2cc(OCc3nnn[nH]3)cc(OCc3nnn[nH]3)c12
133 °C	FC(F)(F)c1ccc(-c2ncn(CCCN3CCOCC3)c2-c2ccncc2)cc1
97 to 98 °C	CSC(Cc1cnn(-c2c(Cl)cc(C(F)(F)F)cc2Cl)n1)SC
137 to 139 °C	C=Cc1cccc(-c2nc(CCOc3ccc(OC(C)(C)C(=O)O)cc3)c(C)o2)c1
102 °C	O=C(Nc1cccnc1Cl)c1ccco1
155 to 158 °C	Cc1c(C(=O)N(CC(=O)O)c2ccc(N3CCC(O)CC3)c(C#N)c2)cnn1-c1ccc(F)cc1
75 to 76 °C	CCOC(=O)CCc1cn(-c2ccc(N)cn2)nc1C(C)C
202 to 205 °C	CCCC1=C(C(=O)OCC)C(c2ccccc2Cl)c2c[nH]nc2N1 (configuration not stated)
130 to 132 °C	CCC(C)NS(=O)(=O)c1ccc(N)c(C(=O)N2CCN(C)CC2)c1 (configuration not stated)
225 to 229 °C	COC(=O)c1cc(Cl)c(-n2[nH]c(N)cc2=O)c(Cl)c1
149 to 150 °C	CCCCC1(CCCC)CS(=O)(=O)c2ccc(N(C)C)cc2C(c2ccc(OCC(=O)NCC(=O)O)cc2)C1O (configuration not stated)
211 to 215 °C	CC1(N2C(=O)c3ccccc3S2(=O)=O)CCCNC1=O (configuration not stated)
58 °C	O=C1CNc2ncc(-c3cccnc3)cc2N1Cc1ccccc1
45.8 °C	COC(OC)C(=O)NCc1ccc(C)cc1

melting point	Structure (SMILES)
167 to 168 °C	CC(=O)NCC1CC(c2ccc(F)cc2)=NO1 (configuration not stated)
144 to 145 °C	CS(=O)(=O)c1ccc(/C(=C(\CCO)C(=O)O)c2ccc(Cl)cc2)cc1
154 to 156 °C	COc1cc2c(cc1C(=O)c1cc(C(C)(C)C)c(O)c(C(C)(C)C)c1)CCC2
191 to 192 °C	Cc1ncc(C=O)c(N)n1
162 to 165 °C	O=C(O)CCc1c([N+](=O)[O-])cc(O)c(O)c1[N+](=O)[O-]
56 to 58 °C	CCOC(=O)c1c(C)nc2c(ncn2C)c1Cl
91 to 92 °C	CCCCCCCCCCC(=O)N[C@H]1CCCNC(=O)C1
155 °C	CCc1cccc(C)c1CNc1nc(Br)cnc1N
178 to 179 °C	CN(CCCNc1ncc(Cc2ccc(Br)cc2)c(=O)[nH]1)c1ccccn1
171 to 173 °C	Cc1c(C=NO)c2ccccc2n1-c1ccc(OCc2ccccc2)cc1
80 to 81 °C	CC(=O)OC1NC(=O)C1C(C)O[Si](C)(C)C(C)(C)C(C)C (configuration not stated)
169 to 170 °C	CC(C)(C)C(=O)Nc1c(F)cc(F)cc1Oc1ccc(C(C)(C)C(N)=O)cc1
198 to 199 °C	CC(C)(C)c1cc(CC#Cc2ccc(C(=O)O)cc2)cc(C(C)(C)C)c1O
118 °C	C#CCOc1ccc2ccc(=O)oc2c1
> 250 °C	Nc1nc2ccccc2c2c1nc(O)n2Cc1ccccc1
159 to 160 °C	CCCn1c(=O)n([C@@H]2CCN(CCCCN3C(=O)c4cc(Cl)ccc4S3(=O)=O)[C@@H](C#N)C2)c2ccccc21 (relative stereo)
139 to 140 °C	CNC(=S)Nc1cc(Cl)ccc1C
167 to 168 °C	COc1ccc(-n2nc(NC(=O)N(C)C)cc2-c2ccc(OCCO)cc2)cc1
242 to 244 °C	O=C(O)/C=C/c1c[nH]c2ccccc2c1=O
152 to 153 °C	COC(=O)c1nc(-c2ccc(F)c(C)c2F)cc(NC(C)=O)c1Cl
142 to 150 °C	O=C(O)[C@@H]1CC(=Cc2ccccc2)CN1C(=O)OCc1ccccc1
197 to 200 °C	COc1cc(Nc2nccc(N3CCC(O)CC3)n2)ccc1-n1cnc(C)c1
135 to 136 °C	CC(=O)N(CCCCC(=O)O)C(c1ccccc1)c1ccccc1

melting point	Structure (SMILES)
89 to 90 °C	CCOC(=O)COc1cccc2c1OCC2=O
130 to 132 °C	CCOC(=O)COc1cc2onc(-c3ccccc3F)c2cc1Br
190 to 191 °C	CCCCCCCCCC(=O)Nc1ccc(S(=O)(=O)Nc2nnc(CC(=O)O)s2)cc1
116 to 117 °C	CC(C)=CCc1cc(C2CCc3ccc(O)cc3O2)ccc1O (configuration not stated)
60 to 65 °C	CCOC(=O)C(Cc1ccc2ccccc2c1Br)C(=O)OCC
84 to 85 °C	CC1(CCO)c2ccccc2-c2ccccc21
232 °C	CC(C)(CO)NS(=O)(=O)c1cccc(NC(=O)c2cnn3c(C(F)F)cc(-c4ccc(C(F)(F)F)cc4)nc23)c1
188 °C	Cc1cc(Nc2ccnc(Nc3ccc(S(=O)(=O)N(C)C4CCCN(C)C4)cc3)n2)ccc1F (configuration not stated)
176 to 178 °C	Cc1ccc(NC(=O)c2cc(Cl)ccc2NCC2CCN(C3CCCCC3)CC2)nc1
146 to 149 °C	CNC(=O)c1c(-c2ccccc2)noc1CC(=O)c1ccccn1
51 to 54 °C	CC(C)(C)OC(=O)NCC1CCN(Cc2ccccc2)C1 (configuration not stated)
149 to 150 °C	Cc1cc(C2(C(F)(F)F)CC(c3ccc(F)cc3)=NO2)ccc1NC(=O)OC(C)(C)C (configuration not stated)
194 to 195 °C	CN(Cc1ccc(NC(=O)C2=Cc3cc(-c4ccsc4)ccc3OCC2)cc1)C1CCOCC1
158 to 159 °C	Nc1c2c(nc3ccc(F)cc13)-c1ccccc1CC2
236 to 242 °C	CCn1c(=N)c(-c2ccc3ccccc3c2)cc2cnc(Nc3ccccc3)nc21
185 to 187 °C	Nc1ncnc2c1c(-c1ccc(Oc3ccccc3C=O)cc1)cn2C1CCOC1 (configuration not stated)
236 to 237 °C	CC(C)n1nc(-c2cnc(N)nc2-c2cccc(Cl)c2)ccc1=O
120 to 121 °C	O=C1CC(=O)NC(c2ccc(Cl)cc2)=N1
163 to 166 °C	CCCCc1nn(-c2ccccc2Cl)c(=O)n1Cc1ccc(-c2ccccc2S(=O)(=O)NC(=O)C(F)(F)F)cc1
251 °C	CN(N=Cc1ccc([N+](=O)[O-])cc1)C1=NOCc2ccc(Cl)cc21
129 to 130 °C	COc1cccc(C2OC(=O)CC2C(=O)O)c1OC (configuration not stated)
110 to 113 °C	Cc1c(SCCCCSCc2ccncc2)ccnc1CNc1cnc2ccccc2c1
123 to 125 °C	COc1cc(Nc2c(C#N)cnc3cc(SCc4ccccc4)c(OC)cc23)c(Cl)cc1Cl

Structure (SMILES)	melting point
CN(C(=S)Nc1ccccc1)C1CCN(CCc2c[nH]c3ccccc23)CC1	194 °C
O=c1[nH]ccn1CC#CCN1CCCC1	99 to 102 °C
CCN1CNC(=N[N+](=O)[O-])N(Cc2ccc(Cl)nc2)C1	124 to 125 °C
